In experiment [1] the test system is Human breast cancer cells T47D (H1047R). In words: Cell proliferation inhibition assay (CTG), T47D (H1047R). The class given is cell-based. The following applies: Homo sapiens, 72 h, 3 days incubation, CTG readout.
Experiment [2] concerns Human breast cancer cells SK-BR-3 (WT). In words: Cell proliferation inhibition assay (CTG), SK-BR-3 (WT). The format is cell-based. The following applies: Homo sapiens, 72 h, SK-BR-3 (WT) cells, 3 days incubation, CTG readout.

A word on the IC50: it is the point on the concentration scale where inhibition reaches its midpoint. On to `Cc1cc([C@@H](C)Nc2ccccc2C(=O)O)c2oc3c(c(=O)c2c1)CCN(Cc1ccccc1)C3` [Compound C176], for which the values for the half-maximal inhibitory concentration (IC50) in experiment [1] and in experiment [2] were at most 500 nM and above 5000 nM, respectively.

As for `[2H]C([2H])([2H])n1ncc(C)c1S(=O)(=O)N1CCc2c(oc3c([C@@H](C)Nc4ccccc4C(=O)O)cc(C)cc3c2=O)C1` [Compound C177], the IC50 was at most 500 nM in experiment [1] and above 5000 nM in experiment [2].

With `CC[C@H](C)N1CCc2c(oc3c([C@@H](C)Nc4ccccc4C(=O)O)cc(C)cc3c2=O)C1` [Compound C178], the figures for the IC50 in experiment [1] and in experiment [2] were at most 500 nM and above 5000 nM, respectively.

With `CC[C@@H](C)N1CCc2c(oc3c([C@@H](C)Nc4ccccc4C(=O)O)cc(C)cc3c2=O)C1` [Compound C179], the IC50 was at most 500 nM in experiment [1] and above 5000 nM in experiment [2].

As to `Cc1cc([C@@H](C)Nc2ccccc2C(=O)O)c2oc3c(c(=O)c2c1)CCN(c1ccccc1)C3` [Compound C180], the IC50 in experiment [1] is at most 500 nM; in experiment [2], above 5000 nM.

With `Cc1cc([C@@H](C)Nc2ccccc2C(=O)O)c2oc3c(c(=O)c2c1)CCN(S(=O)(=O)Cc1ccccc1)C3` [Compound C181], the values for the half-maximal inhibitory concentration (IC50) in experiment [1] and in experiment [2] were at most 500 nM and above 5000 nM, respectively.

In the case of `Cc1cnn(C)c1S(=O)(=O)N1CCc2c(nc3c([C@@H](C)Nc4ccccc4C(=O)O)cc(F)cn3c2=O)C1` [Compound C182], the IC50 in experiment [1] is at most 500 nM; in experiment [2], above 5000 nM.

With `Cc1cc([C@@H](C)Nc2ccccc2C(=O)O)c2nc3c(c(=O)n2c1)CCN(S(=O)(=O)c1c(C)cnn1C)C3` [Compound C189], the half-maximal inhibitory concentration (IC50) is at most 500 nM in experiment [1] and above 5000 nM in experiment [2].

For the compound `C[C@@H](Nc1ccccc1C(=O)O)c1cc(F)cn2c(=O)c3c(nc12)CN(Cc1ccccc1)CC3` [Compound C190], the IC50 is 500 to 2000 nM in experiment [1] and above 5000 nM in experiment [2].

Regarding `Cc1cc([C@@H](C)Nc2ccccc2C(=O)O)c2nc3c(c(=O)n2c1)CCN(S(=O)(=O)c1ccccc1)C3` [Compound C191], the IC50 is at most 500 nM in experiment [1] and above 5000 nM in experiment [2].

`C[C@@H](Nc1ccccc1C(=O)O)c1cc(F)cn2c(=O)c3c(nc12)CN(S(=O)(=O)c1ccccc1)CC3` [Compound C192]: the IC50 was at most 500 nM in experiment [1] and above 5000 nM in experiment [2].

As for `CC(C)S(=O)(=O)N1CCc2c(nc3c([C@@H](C)Nc4ccccc4C(=O)O)cc(F)cn3c2=O)C1` [Compound C193], the half-inhibitory concentration (IC50) was at most 500 nM in experiment [1] and above 5000 nM in experiment [2].

For the compound `C[C@@H](Nc1ccccc1C(=O)O)c1cc(F)cn2c(=O)c3c(nc12)CN(c1ccccc1)CC3` [Compound C208], the IC50 in experiment [1] was 500 to 2000 nM; in experiment [2], above 5000 nM.
